Values quoted from earlier work as cited in patent US20060264384A1, “Compositions and methods for treatment for neoplasms” (priority 2005, published 2006).

Row | Compound | solubility in organic solvents | solubility in water
1 | CCc1c2c(nc3ccc(OC(=O)N4CCC(N5CCCCC5)CC4)cc13)-c1cc3c(c(=O)n1C2)COC(=O)[C@]3(O)CC [Irinotecan] | slightly soluble | slightly soluble
2 | CC[C@@]1(O)C(=O)OCc2c1cc1n(c2=O)Cc2cc3c(CN(C)C)c(O)ccc3nc2-1 [Topotecan] | – | up to 1 mg/ml
3 | CCN(CC)C(=S)SSC(=S)N(CC)CC [Disulfiram] | soluble in solvents such as alcohol, ether, acetone, and benzene | barely soluble in water
